Marks after values point to notes of the source that are not given here.

The text below walks through data of paper PMC8248323 (Clinical Pharmacology in Drug Development, 2021).

The series in a line: Phase 1 DDI study 004 part B: midazolam. The note with it: for effect of lemborexant coadministration on exposure: coadministration with lemborexant 10 mg; for AUC: human, plasma, Geometric LSM.
Setting [1] is: with lemborexant / without lemborexant.
[2] abbreviates: coadministration of lemborexant with bupropion.

`Cc1ncc2n1-c1ccc(Cl)cc1C(c1ccccc1F)=NC2` [Midazolam]: the “effect of lemborexant coadministration on exposure” value is “not affected”. The “effect of lemborexant coadministration on exposure” value (listed as midazolam) was “did not have an effect”. Also, the AUC (AUC0‐inf, midazolam 2 mg + bupropion 75 mg + lemborexant 10 mg daily) stood at 24.1 ng·h/mL. Also, the AUC (AUC0‐inf, midazolam 2 mg + bupropion 75 mg, without lemborexant) worked out at 21.4 ng·h/mL. Where the note is “AUC0‐t, midazolam 2 mg + bupropion 75 mg + lemborexant 10 mg daily (n = 28)”, the AUC was 22.9 ng·h/mL. In addition, the AUC (AUC0‐t, midazolam 2 mg + bupropion 75 mg single dose, without lemborexant (n = 27)) worked out at 20.2 ng·h/mL. Under setting [1], the “AUC0‐inf, Geometric Mean Ratio (90%CI)” value is listed as 1.130 (1.023–1.247); the “AUC0‐t, Geometric Mean Ratio (90%CI)” value is on record as 1.133 (1.025–1.253); the “Cmax, Geometric Mean Ratio (90%CI)” value was 1.126 (1.026–1.236).

For the compound `C[C@@H]1NC(C)(C)CO[C@@]1(O)c1cccc(Cl)c1` [[S,S]‐hydroxylated bupropion], the “AUC0‐t metabolite/parent ratio” value (bupropion with lemborexant) was 124% and the “AUC0‐t metabolite/parent ratio” value (bupropion without lemborexant) is 88.7%. Further, the “decrease in AUC0‐t” value under setting [2] is listed as 24.5%. The “decrease in Cmax” value under setting [2] came out at 17%. Moreover, the “Cmax, Geometric LSM” value is, setting by setting: (midazolam 2 mg + bupropion 75 mg + lemborexant 10 mg daily) 6.57 ^c ng/mL; (midazolam 2 mg + bupropion 75 mg, without lemborexant) 7.93 ng/mL. The “AUC0‐t, Geometric LSM” value reads like this: (midazolam 2 mg + bupropion 75 mg + lemborexant 10 mg daily (n = 28)) 53.2 ^c ng·h/mL; (midazolam 2 mg + bupropion 75 mg single dose, without lemborexant (n = 27)) 70.5 ng·h/mL. Moreover, the “AUC0‐t, Geometric Mean Ratio (90%CI)” value under setting [1] is on record as 0.755 (0.661–0.862). Also, under setting [1], the “Cmax, Geometric Mean Ratio (90%CI)” value is 0.829 (0.759–0.905).
